According to patent publication US20210251228A1, “METHODS FOR REPELLING DROSOPHILA SPECIES USING 2-PENTYLFURAN” (The United States of America, as represented by the …, priority 2020, published 2021):

Key:
Drosophila suzukii [1] = assay: Field test 2 with known 2-pentylfuran release rate: SWD infestation of field raspberries; format: in vivo; details: 14.18 mg/h from two sachets, 48 h, N=15
Experimental: Field test 2 with known 2-pentylfuran release rate: We evaluated the effect of a known release rate of 2-pentylfuran on SWD infestation using 15 small plots of primocane raspberries (each plot=three 7 m rows of Heritage raspberries with 2.4 m between rows and with approximately 11 raspberries planted within each row) planted at different sites on research farms at Cornell AgriTech (plots separated by at least 0.5 km). The plantings were established in 2018 and the trial was conducted in the fall of 2019 as ripe raspberries were present along with high levels of SWD infestations in the area. At each plot we identified two fruiting canes (one for 2-pentylfuran treatment and one for control) that had large green fruit present separated by at least 3 m. After hand removal of any pink or ripe fruit, on 12 Sep. […] Ripe berries were removed from the canes, counted, weighed, placed in rearing cups (540 ml deli cups with approximately 1 cm of water agar at base with a perforated lid), and placed in a walk-in growth chamber (25° C., 55% r.h., 16:8 L:D) for 6 days at which time SWD were enumerated (mostly pupae, a few large larvae). Fruits from canes that were collected to estimate the background level of SWD infestation were evaluated for SWD infestation using the same method as for the canes used to test 2-pentylfuran. […]

Drosophila suzukii [2] = assay: No-choice oviposition cage experiment: release rate of 2-pentylfuran on raspberry; format: in vivo; details: 2 h
Experimental: Effects of Release Rate of 2-pentylfuran on SWD Oviposition on Raspberry: No Choice Test. Based on the significant effect of 2-pentylfuran using an unknown release rate in the field, to better understand concentration response of SWD to 2-pentylfuran, we evaluated the response of adult SWD to different ranges of 2-pentylfuran release rates in 2 h no choice oviposition cage experiments conducted in the greenhouse (25° C.; natural light; 40-60% r.h.). Cages (60 cm W×60 cm H×180 cm L, BioQuip, Rancho Dominguez, Calif.) were shrouded with a piece of shade cloth (120 cm W×120 cm H×300 cm L). […] Actual release rates from each dispenser used were measured for each assay by recording weight of the dispensers prior and post assay. […] Upon completion of the assay, total number of SWD eggs oviposited into the raspberries was determined with the aid of a dissecting microscope.
Statistical Analyses: Trap catch data from multiple-choice assay and two-choice assay were analyzed in a randomized block design with block as a random factor and different EAD-active compounds as a fixed factor using Poisson distribution with log link function and maximum likelihood estimation (Proc Glimmix, SAS Institute, SAS/STAT 9.2 User's Guide, Second Edition, 2009, SAS Institute Inc., Cary, N.C.). […]

For CCCCCc1ccco1 [2-pentylfuran], the “reduction of SWD infestation per berry relative to control” value (Drosophila suzukii [1]) was 56%, the “release rate at which SWD oviposition began to decline relative to control” value (Drosophila suzukii [2]; greenhouse cages, raspberries, N=12) was “around 2.5 mg/h” and the “reduction in number of eggs laid compared to control” value (Drosophila suzukii [2]; high release rate (5 and 10 mg/h)) was 58%.
